test: gradient 5% acetonitrile 3 min, to 50% in 2 min, to 85% in 15 min, held 3 min, 100 µL/min; conditions: column: Zorbax Extend-C18 2.1 x 50 mm; eluents: water / acetonitrile, 0.1% formic acid
Procedure, shortened: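 Values are retention times taken from adduct peaks that software picked and an analyst inspected. The pure standards were run as mixtures of ~100 molecules on HPLC linked to a quadrupole time-of-flight mass spectrometer, in positive and negative ionization mode. A Zorbax Extend-C18 column (2.1 × 50 mm, 1.8 μm) was used at 100 μL/min with water and acetonitrile, each including 0.1% formic acid.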

| RP-LC retention time | SMILES |
| --- | --- |
| 758 s | CCC(=O)N1c2ccc(S(=O)(=O)N3CCCCC3)cc2CC1C(=O)NC1CC1 (stereo unspecified) |
| 734 s | CCc1nnc([C@@H]2CC(F)(F)CN2C(=O)c2n[nH]c3ccccc23)o1 |
| 850 s | Cc1ccc2[nH]cc(CCNC(=O)CC3CCN(C(=O)C4CCCCC4)CC3)c2c1 |
| 957 s | CCOC(=O)c1c(S(=O)(=O)N2CCC(C(=O)Nc3ccc(Cl)cc3)CC2)c(C)n(CC)c1C |
| 617 s | O=C(NCCCOc1cccc2cccnc12)c1cc(-c2ccccc2)on1 |
| 873 s | COc1ccc(-n2ccn3cc(-c4cccc(Cl)c4)nc3c2=O)cc1 |
| 1080 s | O=C(c1nnc(-c2ccc(S(=O)(=O)N3CCCCC3)cc2)o1)N1CCN(c2ccccc2)CC1 |
| 724 s | COCCCNC(=O)c1cc(-c2ccc(OC)c(OC)c2)nc2n[nH]c(-c3ccc(OC)cc3)c12 |
| 769 s | CC1=C(c2ccc(C)cc2)S(=O)(=O)N=C1N1CCC(NC(=O)c2cc(C)n(C)n2)CC1 |
| 1280 s | COc1cc(OC)cc(-c2noc(-c3nnn(Cc4nc(-c5cccc(C)c5)oc4C)c3C)n2)c1 |
| 699 s | Cc1noc(-c2ccc(-n3ncc(C(=O)N4CCCC4)c3C)nc2)n1 |
| 1040 s | CCn1c(=O)c(C(=O)N2CCN(c3cc(C)ccc3C)CC2)nc2cccnc21 |
| 844 s | CC(C)(C)c1ccc(C(CNC(=O)c2cc(-c3ccc4c(c3)OCCO4)on2)N2CCCC2)cc1 (stereo unspecified) |
| 980 s | O=C(c1ccc2c(c1)N(Cc1ccccc1)C(=O)CO2)N1CCc2ccccc21 |
| 686 s | CC(=O)N1CCN(CCOc2ccc(C3CCN(C4=Nn5c(nnc5C(F)(F)F)CC4)CC3)cc2)CC1 |
| 961 s | Cc1nc(-c2ccc3c(c2)CCN3C(=O)c2ccc(F)cc2)cs1 |
| 913 s | CN1C(=O)c2cccc(NC(=O)C3COc4ccccc4O3)c2C1=O (stereo unspecified) |
| 832 s | Cc1ccccc1NS(=O)(=O)c1cc2c(s1)CCN(C(=O)C1CCC1)C2 |
| 714 s | CC1CCN(S(=O)(=O)N2CCCC(C(=O)NCCCN3CCc4ccccc4C3)C2)CC1 (stereo unspecified) |
| 794 s | Cc1ccc(NS(=O)(=O)c2cc3n(c2)CCN(C(C)C)C3=O)cc1C |
| 695 s | Cc1ccc(NC(=O)Nc2cnn(-c3ncncc3N3CCOCC3)c2)cc1Cl |
| 678 s | CC(C)NC(=O)C1CCCN(c2nc3ncn(CC(=O)Nc4ccc5c(c4)OCO5)c(=O)c3s2)C1 (stereo unspecified) |

| RP-LC retention time | SMILES |
| --- | --- |
| 953 s | Cc1ccc(NC(=O)C2CCN(S(=O)(=O)c3ccc4c(c3)sc(=O)n4C(C)C)CC2)cc1C |
| 871 s | CCCCc1ccc(NC(=O)CSc2cc(N3CCC(C(=O)NCC)CC3)ncn2)cc1 |
| 589 s | CCOC(=O)c1cnc2nc(C)ccc2c1Nc1ccc(S(N)(=O)=O)cc1 |
| 991 s | CN(C)S(=O)(=O)c1cc(-c2nnc(-c3ccc(F)cc3)o2)ccc1Cl |
| 900 s | CCOC(=O)c1cccc(NC(=O)CN2C(=O)C(C)(C)c3ccccc32)c1 |
| 937 s | Cn1nc(-c2nnc(-c3ccc(F)cc3)o2)c2c1CCN(S(=O)(=O)c1ccccc1F)C2 |
| 1070 s | Cc1ccc(-c2noc(Cc3nnc(-c4cccc(F)c4)o3)n2)cc1 |
| 600 s | O=C(NC1CCCC1)c1ccc2c(c1)nc1n2CCCCC1 |
| 834 s | Cc1nc(C2CN(S(=O)(=O)c3cc(F)ccc3F)CC23CCOCC3)no1 (stereo unspecified) |
| 721 s | O=c1cc(-c2ccccc2)c2c(O)cc(O)cc2o1 |
| 839 s | CC1CCN(C(=O)c2cc(S(=O)(=O)N3CCC(C(=O)N4CCCCCC4)CC3)cn2C)CC1 |
| 843 s | COc1cc(OC)cc(-c2nc(-c3ccc4ncn(C(C)C)c4c3)no2)c1 |
| 1040 s | CCc1ccc(Oc2cc(N3CCC(C(=O)NCCC(C)C)CC3)ncn2)cc1 |
| 897 s | Cc1cc(-c2nnc(C3CCC3)o2)c(C)n1CC(=O)NCc1cccc(Cl)c1 |
| 892 s | CCc1cccc(NC(=O)C2CCN(S(=O)(=O)c3cc(C(=O)N4CCCC4)cs3)CC2)c1 |
| 710 s | O=C(NC1CC1)c1cc(-c2cccs2)n(C2CCS(=O)(=O)C2)n1 (stereo unspecified) |
| 863 s | CCN1c2cc(Cl)ccc2C(=O)NC12CCN(C(=O)NCCc1ccccc1)CC2 |
| 586 s | O=C1CCN(C(=O)c2ccsc2)CCCOCCN1 |
| 649 s | CCNC(=O)c1cc(C)nc2ccc(Cl)cc12 |
| 773 s | CC(=O)c1ccc(S(=O)(=O)NCCC2CCN(C(=O)c3ccccc3)CC2)cc1 |
| 846 s | COc1ccc(-c2noc(CN3CCN(c4ccccc4)CC3)n2)cc1OC |
| 694 s | COc1ccc2[nH]cc(CCNC(=O)c3cnn(-c4ccc(Cl)cc4)c3C3CCNCC3)c2c1 |

| RP-LC retention time | SMILES |
| --- | --- |
| 878 s | CCn1ncn2cc(S(=O)(=O)NCc3ccc(Cl)cc3)cc2c1=O |
| 593 s | COc1ccc(-c2cn3c(n2)N(C(=O)Cn2ccnc2)CCC3)cc1 |
| 784 s | Cc1nnc(N2CCCC(C(=O)NC3CCCCC3)C2)c2nn(-c3ccc(Cl)cc3)c(C)c12 (stereo unspecified) |
| 582 s | Cc1cnc(C(=O)N[C@@H]2CCC[C@@H]2C(=O)NC(C)C)cn1 |
| 776 s | Cc1ccc(N(C)S(=O)(=O)c2cc(-c3[nH]ncc3C(=O)N3CCCC3)oc2C)cc1 |
| 593 s | CCc1nnc2cc(N3CCN(C(=O)Nc4cccc(C)c4)CC3)cnn12 |
| 637 s | CCOc1ccc(N2CCn3c2nnc(C(=O)NCC2CCCO2)c3=O)cc1 (stereo unspecified) |
| 634 s | CCCc1cc(N2CCN(C(=O)COc3ccccc3)CC2)nc2nnc(C)n12 |
| 651 s | O=C(Nc1ccc2c(c1)OCO2)c1coc(NC(=O)c2ccco2)n1 |
| 827 s | O=S(=O)(NCC1(c2cccs2)CCCC1)c1cccnc1 |
| 963 s | COc1ccc(N2C(=O)C3N=NN(Cc4nc(-c5ccc(Cl)cc5)no4)C3C2=O)cc1OC (stereo unspecified) |
| 965 s | COc1ccc(-c2nc3cnccn3c2Nc2cccc(Cl)c2C)cc1 |
| 828 s | O=C(Cc1ccccc1Cl)N1CCN(c2cc(-c3ccccc3)[nH]n2)CC1 |
| 1160 s | O=C(NCc1ccccc1)c1c(O)c2cccnc2n(-c2ccccc2)c1=O |
| 624 s | Cn1nccc1C(=O)N1CCC(c2nncn2Cc2ccccc2)CC1 |
| 586 s | O=C(NCCCN1CCOCC1)c1ccc2ccnc(N3CCN(c4ccccc4)CC3)c2c1 |
| 848 s | COc1ccccc1N1CCN(Cc2nc(-c3ccc(N4CCCC(C)C4)nc3)no2)CC1 (stereo unspecified) |
| 889 s | CCCOC(=O)c1cccc(Nc2nc(-c3cccnc3)nc3ccccc23)c1 |
| 985 s | CC(C)(C)NS(=O)(=O)c1cc(-c2nnc(-c3ccccc3)o2)ccc1F |
| 779 s | CC1(CNS(=O)(=O)c2ccc(F)cc2F)CCOCC1 |
| 731 s | O=C(Nc1ccccc1)C1CCN(C(=O)C2Sc3ccccc3NC2=O)CC1 (stereo unspecified) |
| 602 s | CC1(C)COc2ccc(NC(=O)NCc3cccc4ccccc34)cc2NC1=O |

| RP-LC retention time | SMILES |
| --- | --- |
| 582 s | O=C(C1CC(=O)N(c2n[nH]c3cccc(F)c23)C1)N1CCN(c2ccccn2)CC1 (stereo unspecified) |
| 707 s | Cc1ccccc1OCc1ccc(-c2nc(C#N)c(NCCN(C)C)o2)o1 |
| 957 s | CN(C)S(=O)(=O)c1ccc2c(c1)N(CC(=O)NCc1cccc(Cl)c1)C(=O)C1CCCCN21 (stereo unspecified) |
| 724 s | O=C(C1CCN(c2cc(N3CCCCC3)ncn2)CC1)N1CCN(c2ccccc2)CC1 |
| 840 s | Cc1cc(C(=O)NC2CCCC2)c2cccc(Cl)c2n1 |
| 701 s | Cc1ccc(C(=O)Nc2ccc3ncnc(N4CCCCC4)c3c2)s1 |
| 1110 s | Cc1cc(C)c(-c2csc(NC(=O)c3ccc(S(=O)(=O)N4CCOCC4)cc3)n2)c(C)c1 |
| 658 s | COc1ccc(NS(=O)(=O)c2cc(-c3[nH]ncc3C(=O)N(C)C)oc2C)cc1 |
| 985 s | CCOc1ccc(-c2csc(C)n2)cc1S(=O)(=O)Nc1ccc(F)cc1 |
| 695 s | Cc1cccc(NC(=O)Nc2c(-c3ccc(F)cc3)nc3ccccn23)c1 |
| 754 s | Cn1cc(-c2cc3n(n2)CCCN3C(=O)CCC(=O)NCc2ccco2)c2ccccc21 |
| 635 s | O=C(C1CCCN(c2ccc(N3CCOCC3)nn2)C1)N1CCN(c2ccccc2)CC1 (stereo unspecified) |
| 693 s | CO[C@H]1C(=O)N(C(C)C)[C@H]1C1CCN(C(=O)c2ccsc2)CC1 |
| 1050 s | COc1cccc(-c2nc(C3CC(=O)N(c4ccc(Cl)cc4)C3)no2)c1 (stereo unspecified) |
| 731 s | O=C(NCc1ccc(Cl)cc1)C1CCCN(c2cnc3nccnc3c2)C1 (stereo unspecified) |
| 1270 s | CCOc1cccc(CNS(=O)(=O)c2cc(-c3nc(C(C)(C)C)cs3)cs2)c1 |
| 1100 s | CC1CCN(S(=O)(=O)c2ccc(-c3nnc(C(=O)NCCc4ccccc4)o3)cc2)CC1 |
| 693 s | COc1cccc(CNC(=O)c2ccc(CN3CCN(C(C)C)C(=O)C3=O)cc2)c1 |
| 661 s | N#CCNC(=O)C1CC(=O)N(CCc2c[nH]c3ccc(F)cc23)C1 (stereo unspecified) |
| 593 s | CCC(CC)C(=O)Nc1ccc2nc(N3CCN(CC)CC3)cc(C)c2c1 |
